Data published in patent US11926578B1, “8-(4-nitroxybenzylideneamino)naphthalene-1,3-disulfonic acid as an antioxidant compound” (KING FAISAL UNIVERSITY, priority 2023, dated 2024).

Assay: DPPH radical scavenging antioxidant test (absorbance at 517 nm)
Format: biochemical
Conditions: radical scavenging inhibition of DPPH, 0.2 mL DPPH (0.75 mM), compound 3 μM in ethanol, 30 min in the dark
Protocol: The antioxidant properties of the 8-(4-nitroxybenzylideneamino)naphthalene-1,3-disulfonic acid were studied by adding 0.2 mL DPPH (0.75 mM)) to compound 8-(4-nitroxybenzylideneamino)naphthalene-1,3-disulfonic acid (III) (3 μM) in ethanol. After 30 min of incubation in the dark, the absorbance was read against a blank at 517 nm. Ascorbic acid (vitamin C) was used as standard antioxidants (positive control). A blank sample was prepared by 0.2 ml of DPPH in 3 ml ethanol. A negative control sample was run using ethanol instead of the sample. The radical scavenging inhibition was calculated using the following equation: […]

O=C1O[C@H]([C@@H](O)CO)C(O)=C1O [vit c, Ascorbic acid]
Inhibition: 74%
